Reference: EP1143955B1, “A COMBINATION OF FBPase INHIBITORS AND INSULIN SENSITIZERS FOR THE TREATMENT OF DIABETES” (priority 1998, dated 2000)
Values belong to the compound of their own block, whether it stands above or below them.

Tests used:
rat liver FBPase = assay: Inhibition of rat liver FBPase (Example B); assay type: biochemical; settings: assayed as for human liver FBPase
[1] = Oral bioavailability determination by the urinary excretion method in the rat (Example G); assay type: in vivo, Sprague Dawley rats
Experimental: The oral bioavailability of prodrugs and parent compounds was determined by the urinary excretion method in the rat. Prodrugs were dissolved in 10% ethanol/90% polyethylene glycol (mw 400) and administered by oral gavage at doses of 10 to 40 mg/kg parent compound equivalents to 6-hour fasted, Sprague Dawley rats (220-240 g). Parent compounds were typically dissolved in deionized water, neutralized with sodium hydroxide, and then administered orally at 10-40 mg/kg or intravenously at ~10 mg/kg. The rats were subsequently placed in metabolic cages and urine was collected for 24 hours. The quantity of parent compound excreted into urine was determined by HPLC analysis as described in Example F. Analysis was performed as described in Example F. For prodrugs, the percentage oral bioavailability was estimated by comparison of the recovery in urine of the parent compound generated from the prodrug administered orally, to that recovered in urine following intravenous administration of the corresponding parent compound. For parent compounds, the percentage oral bioavailability was estimated by comparison of the recovery in urine of the parent compound when administered orally to that recovered when administered intravenously.

Rat Hepatocytes [2] = assay: Inhibition of Gluconeogenesis in Rat Hepatocytes (Example C); assay type: cell-based; settings: glucose production from 10 mM lactate, 1 mM pyruvate, 1 hour, hepatocytes from fed Sprague-Dawley rats
ZDF rat [3] = assay: Combination treatment with Troglitazone and Compound G or Compound J in the ZDF rat - blood glucose (Example N); assay type: in vivo, Zucker Diabetic Fatty (ZDF) rat; settings: for Blood Glucose, mg/dl Day 0: Day 0 (baseline); for Blood Glucose, mg/dl Day 21: Compound J 0.4% food admixture for 21 days
ZDF rat [4] = assay: Combination treatment in the ZDF rat - plasma triglycerides (Example O); assay type: in vivo, Zucker Diabetic Fatty (ZDF) rat; settings: for Plasma Triglycerides, mg/dl (Mean ± SEM): final day of treatment
From the text: Results are considered significant with p<0.05.

ZDF rat [5] = assay: Combination treatment in the ZDF rat - blood lactate (Example Q); set-up: species or system Zucker Diabetic Fatty (ZDF) rat; settings: in vivo
From the text: Blood samples were taken from the tail vein on days 0, 3, 7, 10 and 14 of the Troglitazone-Compound G combination study and on days 0,7,14, and 21 of the Troglitazone-Compound J combination study (study protocols are described in Example N).

Rat Hepatocytes [6] = assay: Inhibition of glucose production and elevation of fructose-1,6-bisphosphate levels in rat hepatocytes (Example D); assay type: cell-based; settings: isolated rat hepatocytes
Experimental: Hepatocytes were prepared from fed Sprague-Dawley rats (250-300 g) according to the procedure of Berry and Friend (Berry, M.N., Friend, D.S., 1969, J. Cell. Biol. 43, 506-520) as modified by Groen (Groen, A.K., Sips, H.J., Vervoom, R.C., Tager, J.M. , 1982, Eur. J. Biochem. 122, 87-93). Hepatocytes (75 mg wet weight/ml) were incubated in 1 ml Krebs-bicarbonate buffer containing 10 mM Lactate, 1 mM pyruvate, 1 mg/ml BSA, and test compound concentrations from 0 to 500 µM. Incubations were carried out in a 95% oxygen, 5% carbon dioxide atmosphere in closed, 50-ml Falcon tubes submerged in a rapidly shaking water bath (37°C). After 1 hour, an aliquot (0.25 ml) was removed, transferred to an Eppendorf tube and centrifuged. 50 µl of supernatant was then assayed for glucose content using a Sigma Glucose Oxidase kit as per the manufacturer's instructions.
Rat hepatocytes were isolated and incubated as described in Example C. Cell extracts, were analyzed for glucose content as described in Example C, and also for fructose 1,6-bisphosphate. Fructose 1,6-bisphosphate was assayed spectrophotometrically by coupling its enzymatic conversion to glycerol 3-phosphate to the oxidation of NADH, which was monitored at 340 nm. […] After a 30 minute preincubation at 37°C, 1 unit/ml of aldolase was added and the change in absorbance measured until a stable value was obtained. […]

Normal Fasted Rats = assay: Glucose lowering after intraperitoneal administration to normal fasted rats (Example F); assay type: in vivo; settings: 18-hour fasted Sprague-Dawley rats, one hour post injection
Experimental: Sprague-Dawley rats (250-300 g) were fasted for 18 hours and then dosed intraperitoneally either with saline or FBPase inhibitor. The vehicle used for drug administration was 10 mM bicarbonate. One hour post injection, rats were anesthetized with halothane, and liver and blood samples were taken and processed as described in Example E. The neutralized liver extracts were analyzed for FBPase inhibitor content by HPLC. A reverse phase YMC ODS AQ column ([…]) was used and eluted with a gradient from 10 mM sodium phosphate pH 5.5 to 75% acetonitrile. Absorbance was monitored at 310 nm. Glucose was measured in the blood sample as described in Example C. Plasma was prepared by centrifugation and extracted by addition of methanol to 60% (v/v). The methanolic extract was clarified by centrifugation and filtration and then analyzed by HPLC as described above.

ZDF rat [7] = assay: Combination treatment in the ZDF rat - plasma insulin (Example P); assay type: in vivo, Zucker Diabetic Fatty (ZDF) rat; settings: Troglitazone-Compound G study, final day of treatment
Experimental: Plasma was prepared by centrifugation and insulin levels then measured by means of an enzyme-linked immunoassay kit according to the instructions of the manufacturer (Amersham Life Sciences). […] Results are considered significant with p<0.05.

db/db mouse [8] = assay: Combination treatment with Troglitazone and Compound G in the db/db mouse - blood glucose (Example S); assay type: in vivo; settings: db/db mice, Troglitazone 0.1%, mean ± SEM
From the text: Treatment was for 18 days. […] Results are considered significant with p<0.05.

db/db mouse [9] = assay: Combination treatment with Troglitazone and Compound A in the db/db mouse - blood glucose (Example T); assay type: in vivo, C57BL/KsJ-db/db mice; settings: for Blood glucose, mg/dl (8 am day 4): fed
From the text: Male C57BL/KsJ-db/db mice were obtained from Jackson Laboratories (Bar Harbor, Maine) at 9 weeks of age. […] Group 1 (controls) received powdered Purina 5008 chow alone. […] This dose is reported to elicit the maximal hypoglycemic effect of Troglitazone in this model (Fujiwara et al 1995). […] Results are considered significant with p<0.05.

type 2 diabetics = settings: most common side-effect; cited from earlier work
human liver FBPase = assay: Inhibition of Human Liver FBPase (Example A); assay type: biochemical; settings: […] fructose 1,6-bisphosphate, 37°C
Mouse liver FBPase = assay: Inhibition of mouse liver FBPase (Example B); assay type: biochemical; settings: partially purified mouse liver FBPase, assayed as for human liver FBPase
ZDF rat [10] = assay: Combination treatment with Rosiglitazone and Compound G in the ZDF rat - blood glucose (Example R); assay type: in vivo, Zucker Diabetic Fatty (ZDF) rat; settings: Rosiglitazone 0.0045%, Compound G 0.2% food admixture, 25 days
[11] = Troglitazone-Compound J study, Troglitazone 0.2%, Compound J 0.4% food admixture, mean ± SEM
[12] = Troglitazone-Compound J study, Troglitazone 0.2%, mean ± SEM

Structure (SMILES): CSc1nc(-c2ccc(P(=O)(O)O)o2)c(CC(C)C)s1 [Compound H, 2-Methylthio-5-isobutyl-4-[2-(5-phosphono)furanyl]thiazole]
IC50 (rat liver FBPase): 175 nM
Oral bioavailability, % ([1]; estimated, urinary excretion of parent compound over 24 hours, oral 10-40 mg/kg vs intravenous ~10 mg/kg, 6-hour fasted rats): 4%

Structure (SMILES): CC(C)Cc1sc(N)nc1-c1ccc(P(=O)(N[C@@H](C)C(=O)OCc2ccccc2)N[C@@H](C)C(=O)OCc2ccccc2)o1 [Compound K, 2-Amino-5-isobutyl-4-[2-(5-N,N-bis(L-alanine acid dibenzyl ester)phosphonoamido)furanyl]thiazole]
IC50 (Rat Hepatocytes [2]): 2100 nM

Structure (SMILES): CCOC(=O)[C@H](C)NP(=O)(N[C@@H](C)C(=O)OCC)c1ccc(-c2nc(N)sc2CC(C)C)o1 [Compound J, 2-Amino-5-isobutyl-4-{2-[5-(N,N'-bis((S)-1-ethoxycarbonyl)ethyl)phosphonamido]furanyl}thiazole]
Oral bioavailability, % ([1]; rat, in vivo, po, 24 h): 21%
Blood Glucose, mg/dl Day 0 (ZDF rat [3]; [11]): 674 ± 20 mg/dL
Blood Glucose, mg/dl Day 21 (ZDF rat [3]; [12]): 452 ± 40 mg/dL
blood glucose lowering in pilot studies (dose selection) (ZDF rat [3]; ZDF rat, food admixture, pilot studies): a trend (not significant) towards more pronounced blood glucose lowering at 0.4% than at 0.2%
Plasma Triglycerides, mg/dl (Mean ± SEM) (ZDF rat [4]; Troglitazone-Compound J study): 759 ± 76 mg/dL
elevation of plasma triglycerides (ZDF rat [4]; monotherapy vs control, ZDF rat): ~2 fold
blood lactate typically elevated over baseline (ZDF rat [5]): ~ 2 fold
maximal blood lactate elevations over baseline (ZDF rat [5]): 3 fold

Structure (SMILES): CCc1cc(F)c(N)c2nc(-c3ccc(P(=O)(O)O)o3)n(CC(C)C)c12 [Compound E]
intracellular fructose 1,6-bisphosphate (Rat Hepatocytes [6]): dose-dependent elevation of intracellular fructose 1,6-bisphosphate
Glucose Lowering, % (Normal Fasted Rats): 44.4%

Structure (SMILES): Cc1c(C)c2c(c(C)c1O)CCC(C)(COc1ccc(CC3SC(=O)NC3=O)cc1)O2 (centres unmarked) [Troglitazone]
IC50 (Rat Hepatocytes [2]; Rattus norvegicus, Hepatocyte): > 100000 nM
Blood Glucose, mg/dl Day 0 (ZDF rat [3]; Troglitazone-Compound G study, drugs as 0.2% food admixtures, mean ± SEM, n=8/group): 655 ± 33 mg/dL
Blood Glucose, mg/dl Day 14 (ZDF rat [3]; Troglitazone-Compound G study, drugs as 0.2% food admixtures for 15 days, mean ± SEM): 431 ± 73 mg/dL
Blood Glucose, mg/dl Day 0 (ZDF rat [3]; [11]): 669 ± 23 mg/dL
Blood Glucose, mg/dl Day 21 (ZDF rat [3]; [12]): 514 ± 135 mg/dL
Plasma Triglycerides, mg/dl (Mean ± SEM) (ZDF rat [4]; Troglitazone-Compound G study): 131 ± 16 mg/dL
Plasma Triglycerides, mg/dl (Mean ± SEM) (ZDF rat [4]; Troglitazone-Compound J study): 249 ± 60 mg/dL
Plasma Insulin, ng/ml (Mean ± SEM) (ZDF rat [7]): 3.61 ± 1.03 ng/mL
Blood Glucose, mg/dl Day 0 (db/db mouse [8]; Day 0 (baseline), Compound G 0.4% food admixture): 710 ± 44 mg/dL
Blood Glucose, mg/dl Day 18 (db/db mouse [8]; Compound G 0.4% food admixture for 18 days): 509 ± 70 mg/dL
Blood glucose, mg/dl 2 pm, day 7 (db/db mouse [9]; 6 hours post second dose of Compound A 250 mg/kg (Group 3) or vehicle (Group 2), food withheld): 195 ± 12.1 mg/dL
Blood glucose, mg/dl (8 am day 4) (db/db mouse [9]; Group 2, Troglitazone 0.1% admixture): 240 ± 21.3 mg/dL
Blood glucose, mg/dl (8 am day 4) (db/db mouse [9]; Group 3, Troglitazone 0.1% admixture, before the first dose of Compound A): 237.5 ± 18.5 mg/dL
Blood glucose, mg/dl (5 pm day 4) (db/db mouse [9]; nine hours after single oral dose of Compound A 250 mg/kg (Group 3) or vehicle (Group 2), Troglitazone 0.1% admixture): 232.5 ± 17 mg/dL
elevation of liver enzymes (hepatotoxicity) (type 2 diabetics): 1 % of patients

IC50 (human liver FBPase): 1300 nM
IC50 (rat liver FBPase): 25000 nM
IC50 (Mouse liver FBPase): 15000 nM
Structure (SMILES): Nc1ncnc2c1ncn2[C@@H]1O[C@H](COP(=O)(O)O)[C@@H](O)[C@H]1O [AMP]

Structure (SMILES): CN(CCOc1ccc(CC2SC(=O)NC2=O)cc1)c1ccccn1 (centres unmarked) [Rosiglitazone]
Responders (rats whose blood glucose levels were lower on day 25 than on day 0) (ZDF rat [10]): 6/10
